Experimental findings from PubChem BioAssay AID2122 (Sanford-Burnham Center for Chemical Genomics, 2009) are described below.

Several values for one entry are separate records, joined by “and”; a condition that tells them apart may be missing. Equal entries are not always repeated.

The experiment deals with MIN6 mouse insulinoma cells, cytotoxicity counterscreen. The experiment can be described thus: cytotoxicity in MIN6 insulinoma cells, dose response, cytotoxicity control, cell-based, mouse insulinoma (AID 2122).

By IC50 is commonly meant the concentration that gives 50% inhibition. For `CN(C)c1ccnc2c[cH-]cc12.[Fe].c1ccc(-[c-]2[c-](-c3ccccc3)[c-](-c3ccccc3)[c-](-c3ccccc3)[c-]2-c2ccccc2)cc1` (stereo unspecified), the IC50 is 4.89 µM and 2.24 µM.
